Results published in patent publication US10662409B2, “Methods of generating neural stem cells” (Trustees of Tufts College, priority 2015, dated 2020).
Values belong to the molecule of their own block, whether it stands above or below them.

How the values were obtained:
Assay type in all cases: cell-based, human
GABA receptors = assay: Electrophysiology of 1-week hiNSC cultures, functionality of GABA receptors; details: hiNSCs cultured for one week
Experimental: hiNSCs were grown on poly-L-lysine coated coverslips (Corning) in neurobasal media supplemented with 2% B27 (Invitrogen), 1% Glutamax, and 1% antibiotic-antimycotic for 1-8 weeks. Recordings were performed at 34° C. For whole-cell patch clamp experiments, pipettes contained saline (in mM): 130 K-gluconate, 10 KCl, 0.1 CaCl2, 2 Mg-ATP, 1.1 EGTA, and 10 HEPES, pH 7.4 KOH. Bath saline contained the following (in mM): 140 NaCl, 2.5 KCl, 2.5 CaCl2, 1.2 MgCl2, 10 HEPES, and 11 glucose, pH 7.4 NaOH.
To determine the functionality of GABA receptors, 1-week hiNSC cultures were assessed via known electrophsysiology methods (e.g., voltage ramp) in order to determine the response of neurons resulting from provided hiNSCs both in the presence of muscimol and in its absence.

hiNSCs [1] = assay: Differentiation of dissociated hiNSCs with retinoic acid added to basal media (immunostaining); details: retinoic acid 10-100 μM
Experimental: (§1) To encourage spontaneous differentiation, hiNSC colonies were enzymatically removed from MEF feeder layers using TrypLE (Invitrogen), then dissociated as much as possible by manually pipetting. This cell suspension was sometimes further separated into a single cell suspension using a […] cell strainer to remove larger clumps. Dissociated hiNSCs were plated and cultured on multiple substrates including CELLstart (Invitrogen), laminin (Roche) or gelatin in hiNSC basal media without bFGF or in neurobasal media supplemented with 2% B27 (Invitrogen), 1% Glutamax, and 1% antibiotic-antimycotic. hiNSC cells began to show differentiation into BIII-tubulin (TUJ1)-positive immature neurons with visible neurite extensions in as little as 4 days. After two weeks in basal media, hiNSC cells spontaneously differentiated into more mature neuronal and glial subtypes. Adding various amounts of retinoic acid (10-100 μM) caused cells to differentiate into more mature neuronal phenotypes in a shorter amount of time (˜8 days). […] For guided differentiation, Shh (500 ng/ml, Peprotech), FGF8 (500 ng/ml, Peprotech), and RA (R&D) at concentrations between 10-100 μM were used to facilitate neuronal and glial differentiation within shorter culture periods (˜7-8 days). For differentiation studies in undefined media, DMEM supplemented with 10% FBS and 1% antibiotic-antimycotic was used. […]

[2] = system: inhibitory GABA receptors; assay: Live Fluo-4AM calcium imaging of hiNSC cultures; details: two-week cultures; 200 μM picrotoxin just before imaging
Experimental: Cells plated onto coverslips or on 3D scaffolds were immersed in extracellular solution (NaCl 140 mM, KCl 2.8 mM, CaCl2 2 mM, MgCl2 2 mM, HEPES 10 mM, glucose 10 mM, pH=7.4, adjusted with NaOH). Fluo-4 (Invitrogen) calcium sensitive dye was mixed 1:1 with 20% Pluronic F127 (Invitrogen). Next, Fluo-4 was diluted to a final concentration of 1 μM in the extracellular buffer and pre-warmed to 37° C. The Fluo-4 1 μM solution was applied to cells and incubated at 37° C. for 1 hour. Upon incubation, cells were washed with the extracellular buffer to remove any unreacted dye. Cells were imaged using Olympus MVX10 macroscope (12.6× magnification) and Hamamatsu ORCA-Flash4.0 camera. The images were taken with the following setup: 15 ms exposure, 60 ms frame frequency, 512×512 pixel, 4×4 binning, […] over 3 minutes at room temperature. Some samples were treated with 200 μM picrotoxin (Sigma-Aldrich) just before imaging. The movie was created using ImageJ software (NIH).

hiNSCs [3] = assay: Guided differentiation of hiNSCs into neuronal subtypes with growth factors in Neurobasal media (HB9 / TH immunostaining); details: added to Neurobasal media; one week in culture; FGF8 500 ng/ml, Shh 500 ng/ml
Experimental: as §1

Molecule: NCc1cc(=O)[nH]o1 [muscimol]
membrane potential response of hiNSCs to GABA agonist (GABA receptors): depolarizing response

Molecule: CC1=C(/C=C/C(C)=C/C=C/C(C)=C/C(=O)O)C(C)(C)CCC1 [retinoic acid]
time to differentiate into more mature neuronal phenotypes (hiNSCs [1]): ~8 days

Molecule: picrotoxin
spontaneous calcium signaling in response to GABA receptor blocker [2]: significantly activated

staining of tyrosine hydroxylase (TH, marker of dopaminergic neurons) (hiNSCs [3]): increase
B1: FGF8: fibroblast growth factor 8 (Peprotech) added to culture media (protein, UniProt P55075 23-233, looked up)
Fibroblast growth factor 8: QEGPGRGPALGRELASLFRAGREPQGVSQQHVREQSLVTDQLSRRLIRTYQLYSRTSGKHVQVLANKRINAMAEDGDPFAKLIVETDTFGSRVRVRGAETGLYICMNKKGKLIAKSNGKGKDCVFTEIVLENNYTALQNAKYEGWYMAFTRKGRPRKGSKTRQHQREVHFMKRLPRGHHTTEQSLRFEFLNYPPFTRSLRGSQRTWAPEPR
